Data reported in ChEMBL document CHEMBL6115023, “Design and biochemical evaluation of 2-cyclopropyl-thioureidobenzamide (CP-TBA) derivatives as potent HBV capsid assembly modulators targeting a novel binding site” (Eur J Med Chem, 2025).
Calls of active or inactive are those of the source. No cut-off for these calls is given here.

Tests used:
[1] = Selectivity index, ratio of CC50 for human HepAD38 cells to IC50 for antiviral activity against HBV gene expressed in human HepAD38 cells assessed as inhibition of HBV DNA replication; type: toxicity, cell-based; conditions: read-out: Selectivity Index
Hepatitis B virus [2] = assay: Antiviral activity against HBV gene expressed in human HePAD38 cells assessed as inhibition of HBV DNA replication by quantitative PCR analysis; type: functional, organism-based
[3] = Cytotoxicity against human HepAD38 cells measured after 72 hrs by CCK-8 assay; type: toxicity, cell-based
[4] = Metabolic stability in human liver microsomes assessed as intrinsic clearance measured per mg of microsomal protein upto 60 mins by LC-MS/MS analysis; type: ADME, Microsome; conditions: read-out: CLH
[5] = Metabolic stability in human liver microsomes assessed as intrinsic clearance (liver) upto 60 mins by LC-MS/MS analysis; type: ADME, Microsome; conditions: read-out: CLH
[6] = Stability in human plasma assessed as compound remaining measured after 60 mins by LC-MS/MS analysis; type: ADME, cell-free; conditions: read-out: Stability
[7] = Stability in human plasma assessed as compound remaining measured after 30 mins by LC-MS/MS analysis; type: ADME, cell-free; conditions: read-out: Stability
[8] = Stability in human plasma assessed as half life by LC-MS/MS analysis; type: ADME, cell-free
[9] = Stability in human plasma assessed as compound remaining measured after 10 mins by LC-MS/MS analysis; type: ADME, cell-free; conditions: read-out: Stability
[10] = MRT (0 to infinity) in Sprague-Dawley rat at 20 mg/kg, po measured upto 24 hrs by LC-MS/MS analysis; type: ADME, organism-based; conditions: in vivo
[11] = Lipophilic-hydrophilic partition coefficient logP of compound; type: physicochemical; conditions: octanol/water
[12] = Tmax in Sprague-Dawley rat at 20 mg/kg, po measured upto 24 hrs by LC-MS/MS analysis; type: ADME, organism-based; conditions: in vivo
Hepatitis B virus [13] = assay: Antiviral activity against HBV infected in human HLCZ01 cells assessed as inhibition of HBV replication by measuring HBV DNA treated for 6 days by qPCR analysis; type: functional, organism-based; conditions: HLCZ01, 144 h
[14] = Cmax in Sprague-Dawley rat at 20 mg/kg, po measured upto 24 hrs by LC-MS/MS analysis; type: ADME, organism-based; conditions: in vivo
[15] = Metabolic stability in human liver microsomes assessed as compound remaining after 60 mins in presence of NADPH by LC-MS/MS analysis; type: ADME, Microsome; conditions: read-out: Stability
[16] = Metabolic stability in human liver microsomes assessed as half life by LC-MS/MS analysis; type: ADME, Microsome
[17] = Stability in human plasma assessed as compound remaining measured immediately by LC-MS/MS analysis; type: ADME, cell-free; conditions: read-out: Stability
Hepatitis B virus [18] = assay: Antiviral activity against HBV infected in human HLCZ01 cells assessed as inhibition of HBV replication by measuring HBsAg treated for 6 days by ELISA; type: functional, organism-based; conditions: time 6.0 day
[19] = AUC (0 to infinity) in Sprague-Dawley rat at 20 mg/kg, po measured upto 24 hrs by LC-MS/MS analysis; type: ADME, organism-based; conditions: in vivo
[20] = AUC (0 to infinitive) in Sprague-Dawley rat at 2 mg/kg, iv measured upto 24 hrs by LC-MS/MS analysis; type: ADME, organism-based; conditions: in vivo
[21] = Half life in Sprague-Dawley rat at 2 mg/kg, iv measured upto 24 hrs by LC-MS/MS analysis; type: ADME, organism-based; conditions: in vivo
[22] = Oral bioavailability in Sprague-Dawley rat at 2 mg/kg, iv measured upto 24 hrs by LC-MS/MS analysis; type: ADME, organism-based; conditions: in vivo
[23] = Metabolic stability in human liver microsomes assessed as compound remaining after 60 mins in absence of NADPH (NCF) by LC-MS/MS analysis; type: ADME, Microsome; conditions: read-out: Stability
[24] = Half life in Sprague-Dawley rat at 20 mg/kg, po measured upto 24 hrs by LC-MS/MS analysis; type: ADME, organism-based; conditions: in vivo
[25] = Cytotoxicity against human HLCZ01 cells assessed as cell viability measured after 72 hrs by CCK-8 assay; type: toxicity, cell-based
[26] = Volume of distribution at steady state in Sprague-Dawley rat at 2 mg/kg, iv measured upto 24 hrs by LC-MS/MS analysis; type: ADME, organism-based; conditions: in vivo, read-out: Vdss
[27] = MRT (0 to t) in Sprague-Dawley rat at 2 mg/kg, iv measured upto 24 hrs by LC-MS/MS analysis; type: ADME, organism-based; conditions: in vivo
[28] = AUC (0 to t) in Sprague-Dawley rat at 20 mg/kg, po measured upto 24 hrs by LC-MS/MS analysis; type: ADME, organism-based; conditions: in vivo
[29] = Clearance in Sprague-Dawley rat at 2 mg/kg, iv measured upto 24 hrs by LC-MS/MS analysis; type: ADME, organism-based; conditions: in vivo
[30] = AUC (0 to t) in Sprague-Dawley rat at 2 mg/kg, iv measured upto 24 hrs by LC-MS/MS analysis; type: ADME, organism-based; conditions: in vivo
[31] = Selectivity index, ratio of CC50 for human HLCZ01 cells to IC50 for antiviral activity against HBV infected in human HLCZ01 cells assessed as inhibition of HBV replication by measuring HBV DNA treated for 6 days by qPCR analysis; type: toxicity, cell-based; conditions: time 6 day, read-out: Selectivity Index
[32] = MRT (0 to infinity) in Sprague-Dawley rat at 2 mg/kg, iv measured upto 24 hrs by LC-MS/MS analysis; type: ADME, organism-based; conditions: in vivo
[33] = Stability in human plasma assessed as compound remaining measured after 120 mins by LC-MS/MS analysis; type: ADME, cell-free; conditions: read-out: Stability
Hepatitis B virus [34] = assay: In vivo antiviral activity against HBV infected male C57BL/6J mouse by hydrodynamic injection (HDI) of pAAV-HBV1.2 assessed as decrease in HBV DNA in serum at 5 mg/kg/day, po measured after 20 days by qPCR analysis; type: functional, organism-based; conditions: time 20.0 day
[35] = MRT (0 to t) in Sprague-Dawley rat at 20 mg/kg, po measured upto 24 hrs by LC-MS/MS analysis; type: ADME, organism-based; conditions: in vivo

O=C(Nc1cc(F)c(F)c(F)c1)c1cc(S(=O)(=O)NC2CCCC2)c(F)cc1C1CC1
selectivity ratio [1]: 52.3 | EC50 (Hepatitis B virus [2]): 0.65 µM | CC50 at 72 h [3]: 34 µM

CC(C)NC(=S)Nc1cc(C(=O)Nc2cc(F)c(F)c(F)c2)c(C2CC2)cc1F
selectivity ratio [1]: 510 | EC50 (Hepatitis B virus [2]): 0.033 µM | CC50 at 72 h [3]: 16.8 µM

O=C(Nc1cc(F)c(F)c(F)c1)c1ccc(F)c(S(=O)(=O)N2CCC(O)CC2)c1
selectivity ratio [1]: 47.6

O=C(Nc1cc(F)c(F)c(F)c1)c1cc(NC(=O)C2CC2)c(F)cc1C1CC1
selectivity ratio [1]: 59.6 | EC50 (Hepatitis B virus [2]): 1.48 µM | CC50 at 72 h [3]: 88.2 µM

CCNC(=S)Nc1cc(C(=O)Nc2cc(F)c(F)c(F)c2)c(C2CC2)cc1F
selectivity ratio [1]: 233 | EC50 (Hepatitis B virus [2]): 0.091 µM | CC50 at 72 h [3]: 21.2 µM

N#Cc1ccc(C(=O)Nc2cc(C(=O)Nc3cc(F)c(F)c(F)c3)c(C3CC3)cc2F)cc1
selectivity ratio [1]: 10.7 | EC50 (Hepatitis B virus [2]): 0.42 µM | CC50 at 72 h [3]: 4.5 µM

O=C(Nc1cc(F)c(F)c(F)c1)c1cc(S(=O)(=O)NC2CCC(O)CC2)c(F)cc1-c1ccc2c(c1)OCO2 (stereo unspecified)
selectivity ratio [1]: < 20.6 | EC50 (Hepatitis B virus [2]): > 4 µM | CC50 at 72 h [3]: 82.4 µM

C=CCNC(=S)Nc1cc(C(=O)Nc2cc(F)c(F)c(F)c2)c(C2CC2)cc1F
selectivity ratio [1]: 151 | EC50 (Hepatitis B virus [2]): 0.11 µM | CC50 at 72 h [3]: 16.7 µM

C[C@]12CC[C@H]3[C@@H](CCC4=CC(=O)CC[C@@]43C)[C@@H]1CC[C@@H]2O [TESTOSTERONE]
microsomal CLint [4]: 74.5 µL/min/mg | CLint scaled [5]: 67 mL/min/kg

O=C(Nc1cc(F)c(F)c(F)c1)c1cc(NC(=O)C2CCCC2)c(F)cc1C1CC1
selectivity ratio [1]: > 208 | EC50 (Hepatitis B virus [2]): 0.48 µM | CC50 at 72 h [3]: > 100 µM

CC(NC(=S)Nc1cc(C(=O)Nc2cc(F)c(F)c(F)c2)c(C2CC2)cc1F)C(F)(F)F (stereo unspecified)
selectivity ratio [1]: 133 | EC50 (Hepatitis B virus [2]): 0.029 µM | CC50 at 72 h [3]: 3.86 µM

O=C(Nc1cc(C(=O)Nc2cc(F)c(F)c(F)c2)c(C2CC2)cc1F)c1cccs1
selectivity ratio [1]: 41.8 | EC50 (Hepatitis B virus [2]): 0.5 µM | CC50 at 72 h [3]: 20.9 µM

CC(C)[N+](C)(CCOC(=O)C1c2ccccc2Oc2ccccc21)C(C)C.[Br-] [PROPANTHELINE BROMIDE]
remaining at 1 h [6]: 1.5% | remaining at 0.5 h [7]: 18.9% | half-life [8]: 0.162 h | remaining at 10 min [9]: 70.1%

O=C(Nc1cc(F)c(F)c(F)c1)c1cc(S(=O)(=O)NC2CCCC2)c(F)cc1-c1ccsc1
selectivity ratio [1]: < 0.29 | EC50 (Hepatitis B virus [2]): > 4 µM | CC50 at 72 h [3]: 1.16 µM

O=C(Nc1cc(F)c(F)c(F)c1)c1cc(NC(=S)NC2CC2)c(F)cc1C1CC1
selectivity ratio [1]: > 500 | EC50 (Hepatitis B virus [2]): 0.2 µM | CC50 at 72 h [3]: > 100 µM

O=C(Nc1cc(F)c(F)c(F)c1)c1cc(S(=O)(=O)NC2CCC(O)CC2)c(F)cc1-c1ccsc1 (stereo unspecified)
selectivity ratio [1]: < 20.6 | EC50 (Hepatitis B virus [2]): > 4 µM | CC50 at 72 h [3]: 82.4 µM

CC(C)N(C)C(=S)Nc1cc(C(=O)Nc2cc(F)c(F)c(F)c2)c(C2CC2)cc1F
MRT inf [10]: 4.42 h | logP [11]: > 5 | Tmax [12]: 0.67 h | remaining at 1 h [6]: 87.6% | EC50 (Hepatitis B virus [13]): 0.012 µM | Cmax [14]: 748 ng/mL | remaining at 1 h [15]: 3.2% | microsomal CLint [4]: 113 µL/min/mg | half-life [16]: 0.205 h | selectivity ratio [1]: > 3030 | remaining at 0 min [17]: 100% | Activity (Hepatitis B virus [18]): Active | AUC(0-inf) [19]: 3450 ng·h/mL | remaining at 0.5 h [7]: 91.6% | AUC(0-inf) [20]: 1200 ng·h/mL | EC50 (Hepatitis B virus [2]): 0.033 µM | half-life [21]: 1.62 h | CLint scaled [5]: 102 mL/min/kg | bioavailability [22]: 28.9% | remaining at 1 h [23]: 99% | half-life [8]: > 4.82 h | half-life [24]: 2.87 h | CC50 at 72 h [25]: 119 µM | Vd [26]: 2.1 L/kg | MRT last at 24 h [27]: 1.09 h | AUC(0-t) at 24 h [28]: 3440 ng·h/mL | clearance [29]: 28.2 mL/min/kg | AUC(0-t) at 24 h [30]: 1180 ng·h/mL | selectivity ratio at 144 h [31]: 9920 | MRT inf [32]: 1.24 h | remaining at 2 h [33]: 82.3% | Activity (Hepatitis B virus [34]): Active | remaining at 10 min [9]: 97.5% | CC50 at 72 h [3]: > 100 µM | MRT last at 24 h [35]: 4.35 h

CC(C)NC(=O)/C=C/c1c(S(=O)(=O)N2CCOCC2)ccc(F)c1C(=O)Nc1cc(F)c(F)c(F)c1
selectivity ratio [1]: < 6.04 | EC50 (Hepatitis B virus [2]): > 4 µM | CC50 at 72 h [3]: 24.2 µM

O=C(Nc1cc(F)c(F)c(F)c1)c1cc(S(=O)(=O)NC2CCC(O)CC2)c(F)cc1-c1ccccc1 (stereo unspecified)
selectivity ratio [1]: < 12.4 | EC50 (Hepatitis B virus [2]): > 4 µM | CC50 at 72 h [3]: 49.7 µM

O=C(O)Cc1ccccc1Nc1c(Cl)cccc1Cl [DICLOFENAC]
microsomal CLint [4]: 211 µL/min/mg | half-life [16]: 0.11 h | CLint scaled [5]: 190 mL/min/kg

COC(=O)/C=C/c1c(S(=O)(=O)N2CCOCC2)ccc(F)c1C(=O)Nc1cc(F)c(F)c(F)c1
EC50 (Hepatitis B virus [2]): > 4 µM | CC50 at 72 h [3]: > 100 µM

O=C(/C=C/c1c(S(=O)(=O)N2CCOCC2)ccc(F)c1C(=O)Nc1cc(F)c(F)c(F)c1)OCCO
EC50 (Hepatitis B virus [2]): > 4 µM | CC50 at 72 h [3]: > 100 µM

CCOC(=O)C1=C(CN2CCOCC2)NC(c2nccs2)=N[C@H]1c1ccc(F)cc1Br
EC50 (Hepatitis B virus [2]): 0.022 µM

O=C(Nc1cc(F)c(F)c(F)c1)c1cc(NC(=S)NC2CCCC2)c(F)cc1C1CC1
selectivity ratio [1]: 179 | EC50 (Hepatitis B virus [2]): 0.026 µM | CC50 at 72 h [3]: 4.66 µM

O=C(Nc1cc(F)c(F)c(F)c1)c1cc(S(=O)(=O)NC2CCCC2)c(F)cc1-c1cccs1
selectivity ratio [1]: 3.75 | EC50 (Hepatitis B virus [2]): 4 µM | CC50 at 72 h [3]: 15 µM
